In patent publication US7977322B2 (Vertex Pharmaceuticals Incorporated, priority 2004, dated 2011):

Molecular target: T1, ΔF508-CFTR (Homo sapiens, UniProt P13569, DEL508-508)
T1 construct: expressed in transfected cells
Assay: Membrane potential optical (FRET/VIPR) assay, identification of correction compounds
Type: cell-based
Settings: Table 3, assay not given; for Emax: read-out: % Activity / % Efficacy (relative efficacy)
Excerpt: I) Membrane Potential Optical Methods for Assaying ΔF508-CFTR Modulation Properties of Compounds
These voltage sensitive assays are based on the change in fluorescence resonant energy transfer (FRET) between the membrane-soluble, voltage-sensitive dye, DiSBAC2(3), and a fluorescent phospholipid, CC2-DMPE, which is attached to the outer leaflet of the plasma membrane and acts as a FRET donor. Changes in membrane potential (Vm) cause the negatively charged DiSBAC2(3) to redistribute across the plasma membrane and the amount of energy transfer from CC2-DMPE changes accordingly. The changes in fluorescence emission were monitored using VIPR™ II, which is an integrated liquid handler and fluorescent detector designed to conduct cell-based screens in 96- or 384-well microtiter plates.
Identification of Correction Compounds
To identify small molecules that correct the trafficking defect associated with ΔF508-CFTR; a single-addition HTS assay format was developed. The cells were incubated in serum-free medium for 16 hrs at 37° C. in the presence or absence (negative control) of test compound. As a positive control, cells plated in 384-well plates were incubated for 16 hrs at 27° C. to “temperature-correct” ΔF508-CFTR. The cells were subsequently rinsed 3× with Krebs Ringers solution and loaded with the voltage-sensitive dyes. To activate ΔF508-CFTR, 10 μM forskolin and the CFTR potentiator, genistein (20 μM), were added along with Cl^− free medium to each well. The addition of Cl^− free medium promoted Cl^− efflux in response to ΔF508-CFTR activation and the resulting membrane depolarization was optically monitored using the FRET-based voltage-sensor dyes.
• Bath Solution #1: (in mM) NaCl 160, KCl 4.5, CaCl2 2, MgCl2 1, HEPES 10, pH 7.4 with NaOH. • Chloride-free bath solution: Chloride salts in Bath Solution #1 are substituted with gluconate salts. • CC2-DMPE: Prepared as a 10 mM stock solution in DMSO and stored at −20° C. • DiSBAC2(3): Prepared as a 10 mM stock in DMSO and stored at −20° C.
NIH3T3 mouse fibroblasts stably expressing ΔF508-CFTR are used for optical measurements of membrane potential. The cells are maintained at 37° C. in 5% CO2 and 90% humidity in Dulbecco's modified Eagle's medium supplemented with 2 mM glutamine, 10% fetal bovine serum, 1×NEAA, β-ME, 1×pen/strep, and 25 mM HEPES in 175 cm^2 culture flasks. For all optical assays, the cells were seeded at 30,000/well in 384-well matrigel-coated plates and cultured for 2 hrs at 37° C. before culturing at 27° C. for 24 hrs. for the potentiator assay.

T1 sequence (P13569 with tags, fused parts or gaps DEL508-508): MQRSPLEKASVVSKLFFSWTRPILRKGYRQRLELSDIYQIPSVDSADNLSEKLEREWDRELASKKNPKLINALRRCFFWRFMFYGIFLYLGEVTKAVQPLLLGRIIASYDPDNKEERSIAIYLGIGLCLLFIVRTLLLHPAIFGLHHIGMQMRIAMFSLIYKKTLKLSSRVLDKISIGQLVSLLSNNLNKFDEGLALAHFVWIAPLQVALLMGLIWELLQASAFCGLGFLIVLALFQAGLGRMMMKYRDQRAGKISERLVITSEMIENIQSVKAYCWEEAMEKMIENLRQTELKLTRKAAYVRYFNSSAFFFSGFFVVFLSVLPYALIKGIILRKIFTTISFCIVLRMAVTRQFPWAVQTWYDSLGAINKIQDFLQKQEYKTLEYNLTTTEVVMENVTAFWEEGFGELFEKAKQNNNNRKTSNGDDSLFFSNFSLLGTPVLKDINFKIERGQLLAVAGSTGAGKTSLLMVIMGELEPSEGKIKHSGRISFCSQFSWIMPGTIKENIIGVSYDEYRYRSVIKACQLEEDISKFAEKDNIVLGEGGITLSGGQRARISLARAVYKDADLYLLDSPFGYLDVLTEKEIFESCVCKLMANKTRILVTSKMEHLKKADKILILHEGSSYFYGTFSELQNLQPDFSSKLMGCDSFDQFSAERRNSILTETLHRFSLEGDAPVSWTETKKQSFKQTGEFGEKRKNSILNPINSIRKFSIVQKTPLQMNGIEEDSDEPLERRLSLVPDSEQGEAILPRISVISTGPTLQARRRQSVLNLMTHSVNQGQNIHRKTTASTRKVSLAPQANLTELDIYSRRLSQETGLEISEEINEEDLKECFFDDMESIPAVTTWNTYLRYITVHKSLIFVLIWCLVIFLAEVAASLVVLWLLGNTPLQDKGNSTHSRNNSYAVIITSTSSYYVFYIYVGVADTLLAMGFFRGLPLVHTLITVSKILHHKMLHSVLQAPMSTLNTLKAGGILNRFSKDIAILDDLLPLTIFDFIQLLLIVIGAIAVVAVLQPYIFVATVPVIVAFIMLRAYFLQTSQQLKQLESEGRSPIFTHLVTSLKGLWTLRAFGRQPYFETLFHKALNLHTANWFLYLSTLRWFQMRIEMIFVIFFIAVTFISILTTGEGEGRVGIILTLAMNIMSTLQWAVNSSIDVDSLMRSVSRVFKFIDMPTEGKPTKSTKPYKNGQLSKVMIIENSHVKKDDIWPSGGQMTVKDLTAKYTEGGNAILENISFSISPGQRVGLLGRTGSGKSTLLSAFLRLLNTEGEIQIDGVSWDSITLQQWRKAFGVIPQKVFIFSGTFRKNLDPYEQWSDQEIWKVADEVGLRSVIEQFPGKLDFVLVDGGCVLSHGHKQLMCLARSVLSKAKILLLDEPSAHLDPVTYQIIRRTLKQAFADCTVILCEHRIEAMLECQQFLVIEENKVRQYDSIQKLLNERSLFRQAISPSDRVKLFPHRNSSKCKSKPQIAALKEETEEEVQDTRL

% Activity / % Efficacy (relative efficacy)	EC50 [µM]	Emax [%]	SMILES
	10 to 25	> 100	CC(C)(C)C(c1cnc(NC(=O)C2(c3ccc4c(c3)OCO4)CC2)s1)N1CCC[C@H]1C(N)=O (stereo partly drawn) [Example 384]
+++ (“+++” means>100%)	< 10		C=CCN(C)C(c1cnc(NC(=O)C2(c3ccc4c(c3)OCO4)CC2)s1)c1ccccc1Cl (stereo not drawn) [Example 218]
	10 to 25	> 100	COc1ccc(C(c2cnc(NC(=O)C3(c4ccc5c(c4)OCO5)CC3)s2)N2CC[C@@H](O)C2)cc1 (stereo partly drawn) [Example 352]
+++ (“+++” means>100%)	< 10		CCCc1nc(NC(=O)C2(c3ccc4c(c3)OCO4)CC2)sc1C(=O)NCC [Example 192]
	< 10	> 100	CC(=O)NCCNC(c1cnc(NC(=O)C2(c3ccc4c(c3)OCO4)CC2)s1)c1ccccc1Cl (stereo not drawn) [Example 436]
	< 10	> 100	CC(C)[C@H](CO)NC(c1cnc(NC(=O)C2(c3ccc4c(c3)OCO4)CC2)s1)c1cc(F)ccc1F (stereo partly drawn) [Example 484]
	10 to 25	> 100	CCC(c1cnc(NC(=O)C2(c3ccc4c(c3)OCO4)CC2)s1)N1CCC[C@@H]1COC (stereo partly drawn) [Example 401]
	10 to 25	> 100	CN(C)C(c1cnc(NC(=O)C2(c3ccc4c(c3)OCO4)CC2)s1)C(C)(C)C (stereo not drawn) [Example 395]
	10 to 25	> 100	Cc1ccccc1C(c1cnc(NC(=O)C2(c3ccc4c(c3)OCO4)CC2)s1)N1CC[C@@H](O)C1 (stereo partly drawn) [Example 466]
	10 to 25	> 100	CC(C)(C)C(c1cnc(NC(=O)C2(c3ccc4c(c3)OCO4)CC2)s1)N1CCCCC1 (stereo not drawn) [Example 383]
++ (“++” means between 25% to 100%)	10 to 25		N#Cc1ccccc1Cc1cnc(NC(=O)C2(c3ccc4c(c3)OCO4)CC2)s1 [Example 62]
+++ (“+++” means>100%)	< 10		COc1ccccc1Oc1cnc(NC(=O)C2(c3ccc4c(c3)OCO4)CC2)s1 [Example 94]
+++ (“+++” means>100%)	< 10		CCOC(c1cnc(NC(=O)C2(c3ccc4c(c3)OCO4)CC2)s1)c1ccccc1Cl (stereo not drawn) [Example 240]
	< 10	> 100	O=C(Nc1ncc([C@H](O)c2ccccc2Cl)s1)C1(c2ccc3c(c2)OCO3)CC1 [Example 323]
	< 10	> 100	CC(C)C[C@H](CO)NC(c1cnc(NC(=O)C2(c3ccc4c(c3)OCO4)CC2)s1)c1ccccc1F (stereo partly drawn) [Example 482]
	< 10	> 100	O=C(Nc1ncc(C(NC2CCC2)c2ccccc2Cl)s1)C1(c2ccc3c(c2)OCO3)CC1 (stereo not drawn) [Example 417]
	10 to 25	> 100	O=C(Nc1ncc(C(c2ccccc2)N2CC[C@@H](O)C2)s1)C1(c2ccc3c(c2)OCO3)CC1 (stereo partly drawn) [Example 368]
	10 to 25	> 100	COc1ccccc1C(c1cnc(NC(=O)C2(c3ccc4c(c3)OCO4)CC2)s1)N1CC[C@@H](O)C1 (stereo partly drawn) [Example 346]
+++ (“+++” means>100%)	< 10		O=C(Nc1ncc(Cc2cccc(F)c2Cl)s1)C1(c2ccc3c(c2)OCO3)CC1 [Example 159]
+++ (“+++” means>100%)	< 10		CC(=O)c1sc(NC(=O)C2(c3ccc4c(c3)OCO4)CC2)nc1C [Example 107]
+++ (“+++” means>100%)	< 10		CCOC(=O)c1sc(NC(=O)C2(c3ccc4c(c3)OCO4)CC2)nc1C(C)C [Example 109]

Further lines, the molecule ahead of its results:

SMILES	% Activity / % Efficacy (relative efficacy)	EC50 [µM]	Emax [%]
COc1ccccc1Cc1cnc(NC(=O)C2(c3ccc(F)c(F)c3)CC2)s1 [Example 198]	+++ (“+++” means>100%)	< 10	
COc1ccc(C2(C(=O)Nc3nc4ccc(Cl)cc4s3)CC2)cc1 [Example 47]		< 10	25 to 100
O=C(Nc1ncc(C(c2ccccc2Cl)N2CC[C@@H](O)C2)s1)C1(c2cccc(C(F)(F)F)c2)CC1 (stereo partly drawn) [Example 441]		< 10	25 to 100
CS(=O)(=O)c1ccc(C(c2cnc(NC(=O)C3(c4ccc5c(c4)OCO5)CC3)s2)N2CC[C@@H](O)C2)cc1 (stereo partly drawn) [Example 378]		10 to 25	25 to 100
Cc1csc(NC(=O)C2(c3ccc4c(c3)OCO4)CC2)c1C(N)=O [Example 289]		< 10	25 to 100
CCC(c1ccccc1)c1nnc(NC(=O)C2(c3ccc4c(c3)OCO4)CC2)s1 (stereo not drawn) [Example 301]		< 10	> 100
COc1ccc(C2(C(=O)Nc3ncc(Sc4ccccc4N)s3)CC2)cc1 [Example 95]		< 10	25 to 100
Cc1nn(-c2ccccc2)c(NC(=O)C2(c3ccc4c(c3)OCO4)CC2)c1-c1ccccc1 [Example 291]		10 to 25	25 to 100
COc1ccccc1Cc1cnc(NC(=O)C2(c3ccc(SC)cc3)CC2)s1 [Example 173]	+++ (“+++” means>100%)	< 10	
O=C(Nc1ncc(C(c2ccccc2Cl)N2CC[C@@H](O)C2)s1)C1(c2cccc(Cl)c2)CC1 (stereo partly drawn) [Example 446]		< 10	> 100
O=C(Nc1ncc(C(NC[C@@H]2CCCO2)c2ccccc2Cl)s1)C1(c2ccc3c(c2)OCO3)CC1 (stereo partly drawn) [Example 434]		< 10	> 100
COc1ccc(C2(C(=O)Nc3ncc(Sc4cccc(Cl)c4)s3)CC2)cc1 [Example 37]		< 10	> 100
O=C(Nc1nc(-c2ccc(Cl)c(Cl)c2)cs1)C1(c2ccc3c(c2)OCO3)CC1 [Example 117]		10 to 25	25 to 100
COc1ccc(C2(C(=O)Nc3ncc(Cc4ccccc4C#N)s3)CC2)cc1OC [Example 61]	+++ (“+++” means>100%)	< 10	
COc1ccc(C2(C(=O)Nc3nc(-c4cccc(OC)c4)cs3)CC2)cc1 [Example 122]	+++ (“+++” means>100%)	< 10	
O=C1CC[C@@H](CO[C@H](c2cnc(NC(=O)C3(c4ccc5c(c4)OCO5)CC3)s2)c2ccccc2Cl)N1 [Example 256]		< 10	> 100
COc1ccc(C2(C(=O)Nc3nc(-c4ccc(Cl)c(Cl)c4)cs3)CC2)cc1 [Example 124]	++ (“++” means between 25% to 100%)	25 to 60	
COc1ccc(C2(C(=O)Nc3ncc(Cc4c(F)cccc4OC)s3)CC2)cc1 [Example 193]	+++ (“+++” means>100%)	< 10	
COc1ccc(C2(C(=O)Nc3nc(-c4ccccc4)cs3)CC2)cc1 [Example 17]		< 10	> 100
O=C(Nc1ncc(C(NC2CCCC2)c2ccccc2Cl)s1)C1(c2ccc3c(c2)OCO3)CC1 (stereo not drawn) [Example 414]		< 10	> 100
O=C(Nc1ncc(C(c2cccc3c2OC(F)(F)O3)N2CC[C@@H](O)C2)s1)C1(c2ccc3c(c2)OCO3)CC1 (stereo partly drawn) [Example 496]		< 10	25 to 100
COc1ccc(C2(C(=O)Nc3ncc(Sc4ccccc4C(=O)O)s3)CC2)cc1 [Example 104]	+++ (“+++” means>100%)	< 10	
CS(=O)(=O)c1ccc(C(c2cnc(NC(=O)C3(c4ccc5c(c4)OCO5)CC3)s2)N2CCC(O)CC2)cc1 (stereo not drawn) [Example 380]		10 to 25	25 to 100
O=C(Nc1ncc(Cc2ccccc2Cl)s1)C1(c2ccc(F)c(F)c2)CC1 [Example 199]	+++ (“+++” means>100%)	< 10	
COc1ccc(OC)c(-c2csc(NC(=O)C3(c4ccc5c(c4)OCO5)CC3)n2)c1 [Example 113]	+++ (“+++” means>100%)	< 10	
O=C(Nc1nc(-c2ccccc2)cs1)C1(c2ccc3c(c2)OCO3)CC1 [Example 80]	+++ (“+++” means>100%)	< 10	
COc1ccccc1C1(C(=O)Nc2ncc(Cc3ccccc3C#N)s2)CC1 [Example 68]		< 10	25 to 100
COc1cccc(C(c2cnc(NC(=O)C3(c4ccc5c(c4)OCO5)CC3)s2)N2CCOCC2)c1 (stereo not drawn) [Example 374]		< 10	> 100
Cc1cc(NC(=O)C2(c3ccc4c(c3)OCO4)CC2)n(Cc2ccccc2)n1 [Example 297]		10 to 25	25 to 100
COc1ccc(C2(C(=O)Nc3nc(-c4ccccc4OC)cs3)CC2)cc1 [Example 121]		< 10	> 100
